Literature values in PMC6843717 (ACS Omega, 2019).

Conditions: cited from earlier work

**Q.** Which T1/2 (Rac inhibitor, plasma) does the source give for O=c1cc(CN2CCOCC2)occ1OCCCCCSc1ccnc2cc(C(F)(F)F)ccc12 [EHT1864] here?
**A.** 1.65 h

**Q.** With CCn1c2ccccc2c2cc(Nc3ccnc(NCCCN4CCOCC4)n3)ccc21 [EHop-016] as the compound, how does the “bioavailability (F)” value (reported for other anticancer drugs) read?
**A.** 40%

**Q.** Which bioavailability (FDA-approved small molecules for advanced breast cancer) does the source give for CC(=O)O[C@H]1C(=O)[C@@]2(C)[C@H]([C@H](OC(=O)c3ccccc3)[C@]3(O)C[C@H](OC(=O)[C@H](O)[C@@H](NC(=O)c4ccccc4)c4ccccc4)C(C)=C1C3(C)C)[C@]1(OC(C)=O)CO[C@@H]1C[C@@H]2O [paclitaxel] here?
**A.** ~11%
